13 molecules from ChEMBL document CHEMBL1201862, “PubChem BioAssay data set” (2004) can be followed below.

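Protocol summary: plate cells (96-well), add compound at 5 concentrations, incubate 48 h, interpolate endpoints linearly. GI50: concentration for 50% inhibition of growth.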 Active and inactive are the calls of the source. Cut-off read from the data, not from the text of the source: active = GI50 up to about 1.1 µM and inactive = higher. A value given as a limit tells only on which side of the number the result lay.

Test systems include SW-620; HCC 2998; HCT-15; HOP-62; OVCAR-3; HL-60; SR; K562; A498; CCRF-CEM; HCT-116; SN12C; MOLT-4; OVCAR-8; U-251; SF-295.
What all share (experiment): growth of human tumour cells (NCI), 48 h

As to `COC(=O)C(C(=O)C(=O)Nc1ccccc1OC)c1csc(-n2nc(-c3ccccc3)cc2-c2ccccc2)n1` (stereo unspecified), the GI50 in the assay with SW-620 was > 100 µM (inactive); in the assay with HCC 2998 it was > 100 µM (inactive); with HCT-15 it was above 100 µM; with HOP-62, > 100 µM (inactive); with OVCAR-3, > 100 µM (inactive); in the assay with HL-60 it was > 100 µM (inactive). Further, the GI50 with SR was 90.8 µM (inactive); in the assay with K562, > 100 µM (inactive); with A498, > 100 µM (inactive); in the assay on CCRF-CEM it was > 100 µM (inactive); in the assay on HCT-116 it was > 100 µM (inactive); in the assay with SN12C, > 100 µM (inactive). Further, the GI50 with MOLT-4 was 65.2 µM (inactive); with OVCAR-8, > 100 µM (inactive); in the assay with U-251 it was > 100 µM (inactive).

On to `CN(O)C(=O)Cc1ccccc1`, for which the GI50 with SW-620, in the assay on HCC 2998, in the assay with HOP-62, in the assay with OVCAR-3, in the assay with HL-60 and in the assay on SR was > 100 µM (inactive) each time. Also, the GI50 with K562, in the assay with CCRF-CEM, with HCT-116, with SN12C, with MOLT-4 and in the assay on OVCAR-8 was > 100 µM (inactive) each time. The GI50 in the assay on SF-295 and in the assay with U-251 was > 100 µM (inactive) throughout.

For `COC(=O)N/N=C(\C)C(CN1CCCCC1)C(C1=C(O)c2ccccc2OC1)c1ccccc1` (stereo unspecified), the GI50 was > 100 µM (inactive) in the assay on SW-620; above 100 µM with HCT-15; > 100 µM (inactive) with HOP-62; > 100 µM (inactive) with OVCAR-3; > 100 µM (inactive) with HL-60; > 100 µM (inactive) in the assay with SR. Also, the GI50 in the assay with K562, in the assay with A498, in the assay with CCRF-CEM, with HCT-116, in the assay with SN12C and in the assay on MOLT-4 was > 100 µM (inactive) each time. Moreover, the GI50 in the assay on OVCAR-8 is > 100 µM (inactive); with SF-295, > 100 µM (inactive); with U-251, 43.1 µM (inactive).

With `CCOC(=O)c1nc(C)oc1C(F)(F)F`, the GI50 in the assay with SW-620 was > 100 µM (inactive); with HCC 2998, > 100 µM (inactive); in the assay on HCT-15 it was above 100 µM; in the assay on HOP-62, > 100 µM (inactive); with OVCAR-3, > 100 µM (inactive); in the assay with HL-60 it was > 100 µM (inactive). Also, the GI50 with SR, with K562, in the assay with A498, in the assay with CCRF-CEM, in the assay on HCT-116 and in the assay with SN12C was > 100 µM (inactive) throughout. Further, the GI50 in the assay with MOLT-4, in the assay with OVCAR-8, with SF-295 and in the assay with U-251 was > 100 µM (inactive) in each case.

In the case of `O=C(CC1=Nc2nnc(CCCCCCCc3nnc4n3C(=O)C(CC(=O)c3ccccc3)=N4)n2C1=O)c1ccccc1`, the GI50 in the assay on SW-620 is > 100 µM (inactive); with HCC 2998 it was > 100 µM (inactive); with HCT-15 it was above 100 µM; in the assay on HOP-62, > 100 µM (inactive); in the assay on OVCAR-3, > 100 µM (inactive); with HL-60 it was > 100 µM (inactive). For the same molecule, the GI50 with SR, in the assay on K562, in the assay with A498, in the assay with CCRF-CEM, in the assay on HCT-116 and in the assay with SN12C was > 100 µM (inactive) each time. Further, the GI50 in the assay with MOLT-4, with OVCAR-8, in the assay on SF-295 and in the assay with U-251 was > 100 µM (inactive) throughout.

Take `O=[N+]([O-])c1cccnc1S(=O)(=O)c1ccccc1`: the GI50 was 3.27 µM (inactive) in the assay with SW-620; 13.6 µM (inactive) in the assay on HCC 2998; 7.55 µM with HCT-15; 17.3 µM (inactive) in the assay with HOP-62; 2.01 µM (inactive) in the assay with OVCAR-3; 2.49 µM (inactive) with HL-60. Moreover, the GI50 in the assay with SR was 3.99 µM (inactive); in the assay on K562 it was 3.45 µM (inactive); with A498 it was 22.1 µM (inactive); in the assay on CCRF-CEM it was 4.21 µM (inactive); in the assay on HCT-116, 6.93 µM (inactive); in the assay with SN12C, 9.2 µM (inactive). Also, the GI50 in the assay with MOLT-4 was 2.84 µM (inactive); with OVCAR-8, 13.8 µM (inactive); with SF-295, 18.5 µM (inactive); in the assay on U-251, 8.95 µM (inactive).

As to `COCOC1CCCC[C@@]1(OCCOCCO[C@@]1(c2ccccc2)CCCC[C@H]1OCOC)c1ccccc1` (stereo partly specified), the GI50 is > 100 µM (inactive) with SW-620; > 100 µM (inactive) in the assay with HCC 2998; above 10 µM in the assay on HCT-15; > 100 µM (inactive) in the assay with HOP-62; > 100 µM (inactive) with OVCAR-3; > 100 µM (inactive) in the assay on HL-60. Besides, the GI50 with SR was > 100 µM (inactive); with K562, > 100 µM (inactive); with CCRF-CEM, > 100 µM (inactive); in the assay on HCT-116, > 100 µM (inactive); in the assay with SN12C, > 100 µM (inactive); with MOLT-4, > 10 µM (inactive). The GI50 is > 100 µM (inactive) with OVCAR-8, 32.4 µM (inactive) with SF-295 and > 100 µM (inactive) with U-251.

In the case of `OC(CCl)CN1CC[N+]2(CC1)CC[N+]1(CCN(CC(O)CCl)CC1)CC2` (stereo unspecified) [PROSPIDIUM CHLORIDE], the GI50 was > 50 µM (inactive) with SW-620; > 50 µM (inactive) with HCC 2998; above 50 µM in the assay on HCT-15; > 50 µM (inactive) with OVCAR-3; > 50 µM (inactive) in the assay with HL-60; > 50 µM (inactive) with SR. Besides, the GI50 with K562, with A498, in the assay on CCRF-CEM, with HCT-116, in the assay on SN12C and in the assay on MOLT-4 was > 50 µM (inactive) each time. In addition, the GI50 in the assay with OVCAR-8, in the assay on SF-295 and with U-251 was > 50 µM (inactive) throughout.

For the molecule `C/C(=C\CNc1ncnc2c1ncn2C1CCCCO1)COP(=O)(O)O` (stereo unspecified), the GI50 in the assay with SW-620 is > 100 µM (inactive); in the assay on HCC 2998, > 100 µM (inactive); in the assay with HCT-15, above 100 µM; with HOP-62, > 100 µM (inactive); in the assay with OVCAR-3, > 100 µM (inactive); in the assay with HL-60, > 100 µM (inactive). In addition, the GI50 in the assay on SR, in the assay with K562, in the assay on CCRF-CEM, in the assay on HCT-116, with SN12C and in the assay with MOLT-4 was > 100 µM (inactive) in each case. For the same molecule, the GI50 in the assay with OVCAR-8, in the assay on SF-295 and with U-251 was > 100 µM (inactive) in each case.

`O=C(Nc1ccn(CCI)c(=O)n1)c1ccccc1`: the GI50 in the assay on SW-620 is > 100 µM (inactive); in the assay with HCT-15 it was above 100 µM; in the assay on HOP-62, > 100 µM (inactive); with OVCAR-3, > 100 µM (inactive); in the assay on HL-60, > 100 µM (inactive); in the assay with SR it was > 100 µM (inactive). Also, the GI50 in the assay with K562, in the assay with A498, with CCRF-CEM, in the assay with HCT-116, with SN12C and with OVCAR-8 was > 100 µM (inactive) in each case. Besides, the GI50 in the assay on SF-295 and with U-251 was > 100 µM (inactive) in each case.

On to `CC(=O)OC1CCn2nnc(CO[Si](C)(C)C(C)(C)C)c21` (stereo unspecified), for which the GI50 in the assay on SW-620 was > 100 µM (inactive); in the assay with HCC 2998 it was > 100 µM (inactive); in the assay on HCT-15, above 100 µM; with OVCAR-3 it was > 100 µM (inactive); in the assay on SR, > 100 µM (inactive); with K562, > 100 µM (inactive). Further, the GI50 in the assay with HCT-116, in the assay with SN12C, in the assay on MOLT-4, in the assay with OVCAR-8, in the assay with SF-295 and in the assay on U-251 was > 100 µM (inactive) throughout.

As for `O=C(O)Cn1c(=O)[nH]c(=O)c2[nH]cnc21`, the GI50 in the assay with SW-620 is > 100 µM (inactive); in the assay with HCC 2998, > 100 µM (inactive); in the assay on HCT-15 it was above 100 µM; in the assay with HOP-62, > 100 µM (inactive); in the assay with OVCAR-3 it was > 100 µM (inactive); with HL-60, > 100 µM (inactive). The GI50 in the assay with SR, in the assay with K562, with A498, in the assay on CCRF-CEM, in the assay with HCT-116 and in the assay on SN12C was > 100 µM (inactive) each time. The GI50 in the assay on MOLT-4, with OVCAR-8 and in the assay with U-251 was > 100 µM (inactive) in each case.

On to `O=c1[nH]c(=O)n(C2CC(O)C(CO)O2)cc1C#Cc1ccc(F)cc1` (stereo unspecified), for which the GI50 in the assay on SW-620 was > 100 µM (inactive); in the assay with HCC 2998, > 100 µM (inactive); in the assay with HCT-15, above 100 µM; in the assay on HOP-62, > 100 µM (inactive); in the assay with OVCAR-3, > 100 µM (inactive); with SR, > 100 µM (inactive). The GI50 in the assay with K562, in the assay with CCRF-CEM, in the assay with SN12C, with MOLT-4, with OVCAR-8 and in the assay with SF-295 was > 100 µM (inactive) in each case. For the same molecule, the GI50 in the assay with U-251 was > 100 µM (inactive).
